“And” between values parts separate entries of the source, which are not always exact repeats. Equal entries are not always repeated.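 Following 48 hours of exposure in 96-well plates, responses at five concentrations were used to interpolate endpoints linearly. The concentration for 50% growth inhibition is given as GI50. TGI: total growth inhibition.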
Columns and labels:
Experiment in all cases: growth of human tumour cells (NCI), 48 h
[1] = tested on: 786-0 renal
[2] = tested on: ACHN renal
[3] = tested on: IGROV1 ovarian
[4] = tested on: MCF7 breast
[5] = tested on: MDA-MB-231 breast
[6] = tested on: OVCAR-4 ovarian
[7] = tested on: OVCAR-8 ovarian
[8] = tested on: SK-OV-3 ovarian
[9] = tested on: SNB-75 CNS
[10] = tested on: U251 CNS

Structure (SMILES): C=C(CN1C(=O)[C@H]2CCCN2C(=O)c2ccccc21)c1ccc(C(=O)O)cc1
- GI50 [1]: > 100 µM
- TGI [1]: > 100 µM
- GI50 [2]: > 100 µM
- TGI [2]: > 100 µM
- GI50 [3]: > 100 µM
- TGI [3]: > 100 µM
- GI50 [4]: > 100 µM
- TGI [4]: > 100 µM
- GI50 [5]: > 100 µM
- TGI [5]: > 100 µM
- GI50 [6]: > 100 µM
- TGI [6]: > 100 µM
- GI50 [7]: > 100 µM
- TGI [7]: > 100 µM
- GI50 [8]: > 100 µM
- TGI [8]: > 100 µM
- GI50 [9]: > 100 µM
- TGI [9]: > 100 µM
- GI50 [10]: > 100 µM
- TGI [10]: > 100 µM

Structure (SMILES): Cc1cc2nc3c4cc(N)ccc4n(CCN(C)C)c3nc2cc1C
- GI50 [1]: 1.11 µM
- TGI [1]: 12.6 µM
- GI50 [2]: 0.351 µM
- TGI [2]: 9.7 µM
- GI50 [3]: 0.5 µM
- TGI [3]: 4.62 µM
- GI50 [4]: 0.494 µM
- TGI [4]: 7.96 µM
- GI50 [5]: 1.12 µM
- TGI [5]: 7.61 µM
- GI50 [6]: 1.79 µM
- TGI [6]: 9.64 µM
- GI50 [7]: 0.584 µM
- TGI [7]: 12.8 µM
- GI50 [8]: 1.92 µM
- TGI [8]: 16.4 µM
- GI50 [9]: 1.16 µM
- TGI [9]: 6.82 µM
- GI50 [10]: 0.613 µM
- TGI [10]: 11.1 µM

Structure (SMILES): CC1(C)N=C(N)N=C(N)N1c1ccc(OCCCCOc2ccc(S(=O)(=O)F)cc2)c(Cl)c1
- GI50 [1]: 0.355 µM
- TGI [1]: 18.9 µM
- GI50 [2]: 1.68 µM
- TGI [2]: > 100 µM
- GI50 [3]: 0.0602 µM
- TGI [3]: 21.8 µM
- GI50 [4]: 0.13 µM
- TGI [4]: 13 µM
- GI50 [5]: 1.9 µM
- TGI [5]: 23.9 µM
- GI50 [6]: 6.4 µM
- TGI [6]: 27.7 µM
- GI50 [7]: 0.348 µM
- TGI [7]: 17.4 µM
- GI50 [8]: 5.88 µM
- TGI [8]: 24.9 µM
- GI50 [9]: 0.737 µM
- TGI [9]: 17.1 µM
- GI50 [10]: 0.0506 µM
- TGI [10]: 13.6 µM

Structure (SMILES): COc1ncc(-c2ccc3nccc(-c4ccnnc4)c3c2)cc1NS(=O)(=O)c1ccc(F)cc1F
- GI50 [1]: 0.00651 µM and < 0.01 µM
- TGI [1]: 0.0791 µM and 0.106 µM
- GI50 [2]: 0.0104 µM and < 0.0114 µM
- TGI [2]: > 74.3 µM
- GI50 [3]: < 0.01 µM
- TGI [3]: 0.00752 µM and < 0.01 µM
- GI50 [4]: 0.00101 µM and < 0.01 µM
- TGI [4]: > 10 µM and 11 µM
- GI50 [5]: 0.0392 µM and 0.0439 µM
- TGI [5]: 1.83 µM
- GI50 [6]: 0.033 µM and 0.0217 µM
- GI50 [7]: 0.0191 µM and 0.0173 µM
- TGI [7]: > 5.42 µM and 3.25 µM
- GI50 [8]: 0.00188 µM and < 0.01 µM
- TGI [8]: 0.0204 µM and 0.0377 µM
- GI50 [9]: 0.00133 µM and < 0.01 µM
- TGI [9]: 0.0135 µM and < 0.0156 µM
- GI50 [10]: 0.0194 µM and < 0.0147 µM
- TGI [10]: > 3.43 µM and 0.923 µM

Structure (SMILES): CC(C)(O)CS(=O)(=O)Nc1ccc2c(c1)CCN(C(=O)COc1cccnc1)C2
- GI50 [1]: > 100 µM
- TGI [1]: > 100 µM
- GI50 [2]: > 100 µM
- TGI [2]: > 100 µM
- GI50 [3]: > 84 µM
- TGI [3]: > 100 µM
- GI50 [4]: 5.1 µM
- TGI [4]: > 100 µM
- GI50 [5]: > 100 µM
- TGI [5]: > 100 µM
- GI50 [6]: > 100 µM
- TGI [6]: > 100 µM
- GI50 [7]: 0.0177 µM
- TGI [7]: > 100 µM
- GI50 [8]: > 100 µM
- TGI [8]: > 100 µM
- GI50 [9]: > 100 µM
- TGI [9]: > 100 µM
- GI50 [10]: > 62.7 µM
- TGI [10]: > 100 µM

Structure (SMILES): COC(=O)C1=C(C(=O)ON)C2C=CC1(C(Cc1ccccc1)Nc1ccccc1)O2 (stereo not drawn)
- GI50 [1]: 1.76 µM
- TGI [1]: 3.26 µM
- GI50 [2]: 1.63 µM
- TGI [2]: 2.99 µM
- GI50 [3]: 1.87 µM
- TGI [3]: 3.49 µM
- GI50 [4]: 2.42 µM
- TGI [4]: 6.59 µM
- GI50 [5]: 1.87 µM
- TGI [5]: 3.59 µM
- GI50 [6]: 1.66 µM
- TGI [6]: 3.12 µM
- GI50 [7]: 2.75 µM
- TGI [7]: 8.71 µM
- GI50 [8]: 14.8 µM
- TGI [8]: 28 µM
- GI50 [9]: 8.9 µM
- TGI [9]: 21.2 µM
- GI50 [10]: 14.2 µM
- TGI [10]: 27.2 µM

Structure (SMILES): O=C1C(=O)c2ccccc2C(O)=C1CC=C(Br)Br
- GI50 [1]: 3.99 µM
- TGI [1]: > 100 µM
- GI50 [2]: 4.71 µM
- TGI [2]: 92.3 µM
- GI50 [3]: 3.91 µM
- TGI [3]: 93.8 µM
- GI50 [4]: 4.29 µM
- TGI [4]: > 100 µM
- GI50 [5]: 8.98 µM
- TGI [5]: 27 µM
- GI50 [6]: 11.7 µM
- TGI [6]: 75.9 µM
- GI50 [7]: 2.14 µM
- TGI [7]: 66.8 µM
- GI50 [8]: 10.5 µM
- TGI [8]: 59.8 µM
- GI50 [9]: 2.58 µM
- TGI [9]: 59.5 µM
- GI50 [10]: 0.976 µM
- TGI [10]: 52.7 µM

Structure (SMILES): CC(=O)[C@@]1(O)CC[C@H]2[C@@H]3C[C@H](C)C4=CC(=O)CC[C@]4(C)[C@H]3[C@@H](O)C[C@@]21C
- TGI [1]: > 100 µM
- TGI [2]: > 100 µM
- TGI [3]: > 100 µM
- TGI [4]: > 100 µM
- TGI [5]: > 100 µM
- TGI [6]: > 100 µM
- TGI [7]: > 100 µM
- TGI [8]: > 100 µM
- TGI [9]: > 100 µM
- TGI [10]: > 100 µM

Structure (SMILES): O=C(/C=C/c1cccnc1)NCCCCC1CCCN(C(=O)c2ccccc2)C1 (stereo not drawn)
- GI50 [1]: > 64.3 µM
- TGI [1]: > 100 µM
- GI50 [2]: > 91 µM
- TGI [2]: > 100 µM
- GI50 [3]: 0.0615 µM
- TGI [3]: > 100 µM
- GI50 [4]: 37.5 µM
- TGI [4]: > 100 µM
- GI50 [5]: > 100 µM
- TGI [5]: > 100 µM
- GI50 [6]: > 74 µM
- TGI [6]: > 100 µM
- GI50 [7]: < 0.01 µM
- TGI [7]: > 100 µM
- GI50 [8]: > 91.7 µM
- TGI [8]: > 100 µM
- TGI [9]: > 100 µM
- GI50 [10]: < 0.01 µM
- TGI [10]: > 100 µM

Structure (SMILES): C=C1C(=O)O[C@H]2[C@H]1CC/C(Cn1cc(-c3cc(C(F)(F)F)cc(C(F)(F)F)c3)nn1)=C\CC[C@@]1(C)O[C@@H]21
- GI50 [1]: 0.163 µM
- TGI [1]: 0.311 µM
- GI50 [2]: 0.16 µM
- TGI [2]: 0.325 µM
- GI50 [3]: 0.841 µM
- TGI [3]: 2.34 µM
- GI50 [4]: 0.198 µM
- TGI [4]: 1.19 µM
- GI50 [5]: 0.333 µM
- TGI [5]: 1.06 µM
- GI50 [6]: 0.508 µM
- TGI [6]: 1.8 µM
- GI50 [7]: 0.88 µM
- TGI [7]: 2.2 µM
- GI50 [8]: 1.86 µM
- TGI [8]: 3.43 µM
- GI50 [9]: 1.26 µM
- TGI [9]: 2.52 µM
- GI50 [10]: 1.44 µM
- TGI [10]: 2.76 µM

Structure (SMILES): O=NNc1ccc(S(=O)(=O)c2ccccc2)cn1
- TGI [1]: > 100 µM
- TGI [2]: > 100 µM
- TGI [3]: > 100 µM
- TGI [4]: > 100 µM
- TGI [5]: > 100 µM
- TGI [6]: > 100 µM
- TGI [7]: > 100 µM
- TGI [8]: > 100 µM
- TGI [9]: > 100 µM
- TGI [10]: > 100 µM
